From ChEMBL document CHEMBL1201862, “PubChem BioAssay data set” (2004)
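Compound exposure: 48 hours, 5 concentrations, 96-well plates. GI50 = concentration required for 50% inhibition of growth.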 Activity calls are given as the source filed them. Rule as the data show it: active = GI50 up to about 1.1 µM and inactive = higher.

Assays:
Test in all cases: DTP human tumour cell line panel, 48 h
[1] = test system: A498
[2] = test system: NCI-H460
[3] = test system: DMS-114
[4] = test system: NCI-H522
[5] = test system: HT-29
[6] = test system: MOLT-4
[7] = test system: OVCAR-4
[8] = test system: UACC-257
[9] = test system: LOX IMVI
[10] = test system: KM-20L2
[11] = test system: COLO 205
[12] = test system: NCI-H226
[13] = test system: SN12C
[14] = test system: SF-268
[15] = test system: OVCAR-5
[16] = test system: SNB-75

Measured: GI50

c1ccc2c(c1)SP1Sc3ccccc3P21 (centres undefined)
inactive: [1] > 100 µM | [2] > 100 µM | [3] > 79.3 µM | [4] 39.6 µM | [5] 74.6 µM | [6] > 100 µM | [7] 72.3 µM | [8] > 100 µM | [9] > 83.6 µM | [10] > 78 µM | [11] > 100 µM | [12] > 45.7 µM | [13] 63.4 µM | [14] > 95.3 µM | [15] > 100 µM | [16] 61.9 µM

Cc1cccc(C(C)C)c1NC(=O)CC1Sc2ccccc2NC1=O (centres undefined)
inactive: [1] 72.4 µM | [2] > 100 µM | [3] 23.4 µM | [4] 78.7 µM | [5] 48.9 µM | [6] 20.5 µM | [7] > 100 µM | [8] > 100 µM | [9] 94.4 µM | [10] > 100 µM | [11] > 100 µM | [12] 77.8 µM | [13] > 100 µM | [14] 63 µM | [15] > 100 µM | [16] 60.3 µM

CC1(C)OC2CC(=O)OCC23C1CC(=O)C1(C)C3CCC2(C)C(c3ccoc3)OC(=O)C3OC321 (centres undefined)
inactive: [1] > 125 µM | [2] > 125 µM | [3] > 125 µM | [4] > 125 µM | [5] > 125 µM | [6] > 125 µM | [7] > 125 µM | [8] 124 µM | [9] > 125 µM | [10] > 125 µM | [11] > 125 µM | [12] > 125 µM | [13] > 39.5 µM | [14] > 125 µM | [15] > 125 µM | [16] 64.7 µM

O=C(CCC1C(=O)NC(=S)NC1=O)c1ccc2ccccc2c1
inactive: [1] > 100 µM | [2] > 100 µM | [3] > 100 µM | [4] 14.8 µM | [5] > 100 µM | [6] > 100 µM | [7] > 100 µM | [8] > 100 µM | [9] > 100 µM | [10] > 100 µM | [11] > 100 µM | [12] > 100 µM | [13] > 100 µM | [14] > 100 µM | [15] > 100 µM | [16] > 100 µM
